Data from US20260223850A1, “SUBSTITUTED PYRROLIDONE COMPOUND, PREPARATION METHOD THEREFOR, COMPOSITION AND APPLICATION THEREOF” (QINGDAO KINGAGROOT CHEMICAL COMPOUND CO., LTD., priority 2023, published 2026).

Legend:
Assay type in all cases: in vivo
Leptochloa chinensis = assay: Seedling stage sealing experiment for water-seeding; settings: 120 g a.i./ha, 15 days, fresh weight control rate
Source text: (1) Seedling Stage Sealing Experiment for Water-Seeding:
The activity level criteria for plant damage (i.e., growth control rate) are as follows: • Level 9: completely dead; • Level 8: growth control rate greater than or equal to 90% and less than 100%; • Level 7: growth control rate greater than or equal to 80% and less than 90%; • Level 6: growth control rate greater than or equal to 70% and less than 80%; • Level 5: growth control rate greater than or equal to 50% and less than 70%; • Level 4: growth control rate greater than or equal to 30% and less than 50%; • Level 3: growth control rate greater than or equal to 20% and less than 30%; • Level 2: growth control rate greater than or equal to 10% and less than 20%; • Level 1: growth control rate less than 10%; • Level 0: no effect.
The above growth control rates are fresh weight control rates.
Echinochloa phyllopogon, Digitaria sanguinalis, Huaidao (rice cultivar), etc. were broadcasted on the surface of nutrition bowls filled with soil and fully covered by soil. The foregoing well-prepared nutrition bowls were then placed in a cultivation box with water filled to a suitable height to keep the soil in the nutrition bowls moist. A test compound of the present invention was individually dissolved with acetone, then diluted into solution of a certain concentration using a certain amount of water, and sprayed using a spray tower. The plants were placed on a greenhouse seedbed and cultured for 15 days, and the experimental results were then collected. The compound was applied at 120, 60, 30 and 15 g a.i./ha in triplicate, and the results were averaged.

Echinochloa phyllopogon = assay: as above; settings: 120 g a.i./ha, 15 days, fresh weight control rate
Outline: (§1)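 Seeds broadcast on soil in nutrition bowls, covered, kept moist in a water-filled box; compound in acetone diluted with water and spray-tower applied at 120, 60, 30 and 15 g a.i./ha, triplicate. Scored after 15 days in greenhouse on a 0–9 scale of fresh-weight growth control, averaged.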

Echinochloa crusgalli = assay: as above; settings: 120 g a.i./ha, 15 days, fresh weight control rate
Huaidao (rice cultivar) = assay: Seedling stage sealing experiment for water-seeding (crop safety); settings: 120 g a.i./ha, 15 days, fresh weight control rate; for Huaidao (rice cultivar) plant damage level: seedling stage sealing; for Huaidao (rice cultivar) plant damage level (growth control rate): spray, seedling stage sealing for water-seeding
Outline: as §1

[1] = spray, seedling stage sealing for water-seeding

SMILES	Leptochloa chinensis activity level (growth control rate) (Leptochloa chinensis)	Echinochloa phyllopogon activity level (growth control rate) (Echinochloa phyllopogon; seedling stage sealing)	Echinochloa crusgalli activity level (growth control rate) (Echinochloa crusgalli; seedling stage sealing)	Huaidao (rice cultivar) plant damage level (Huaidao (rice cultivar))	Huaidao (rice cultivar) plant damage level (growth control rate) (Huaidao (rice cultivar))	Echinochloa phyllopogon activity level (growth control rate) (Echinochloa phyllopogon; [1])	Echinochloa crusgalli activity level (growth control rate) (Echinochloa crusgalli; [1])
CN1CC(c2ccc(F)cc2F)C(C(=O)Nc2cnn(C)c2Cl)C1=O (stereo not drawn) [Compound 304]	5 (Level 5: growth control rate greater than or equal to 50% and less than 70%)	6 (Level 6: growth control rate greater than or equal to 70% and less than 80%)	7 (Level 7: growth control rate greater than or equal to 80% and less than 90%)	–	–	–	–
CC(C)n1ncc(NC(=O)[C@H]2C(=O)N(C)C[C@@H]2c2cccc(C(F)(F)F)c2)c1C1CC1 [197′]	9	6 (Level 6: growth control rate greater than or equal to 70% and less than 80%)	8 (Level 8: growth control rate greater than or equal to 90% and less than 100%)	–	–	–	–
CN1C[C@H](c2cccc(C(F)(F)F)c2)[C@@H](C(=O)Nc2cnn(CC3CC3)c2Cl)C1=O [165′]	6 (Level 6: growth control rate greater than or equal to 70% and less than 80%)	–	–	–	–	–	–
COc1cc(OC)cc([C@H]2CN(C)C(=O)[C@@H]2C(=O)Nc2cnn(C)c2C2CC2)c1 [301′]	6 (Level 6: growth control rate greater than or equal to 70% and less than 80%)	–	–	–	–	–	–
CN1CC(c2cccc(OC3CCCC3)c2)C(C(=O)Nc2cnn(C)c2Cl)C1=O (stereo not drawn) [Compound 41]	6 (Level 6: growth control rate greater than or equal to 70% and less than 80%)	–	5 (Level 5: growth control rate greater than or equal to 50% and less than 70%)	–	–	–	–
Cn1ncc(NC(=O)C2C(=O)NCC2c2cccc(C(F)(F)F)c2)c1Cl (stereo not drawn) [Compound 100]	6 (Level 6: growth control rate greater than or equal to 70% and less than 80%)	–	6 (Level 6: growth control rate greater than or equal to 70% and less than 80%)	–	–	–	–
COc1cc([C@H]2CN(C)C(=O)[C@@H]2C(=O)Nc2cnn(C)c2Cl)ccc1C(F)(F)F [316′]	6 (Level 6: growth control rate greater than or equal to 70% and less than 80%)	–	6 (Level 6: growth control rate greater than or equal to 70% and less than 80%)	–	–	–	–
CN1C[C@H](c2cccc(C(F)(F)F)c2)[C@@H](C(=O)Nc2cnn(C(C)(C)C)c2Cl)C1=O [157′]	7 (Level 7: growth control rate greater than or equal to 80% and less than 90%)	–	5 (Level 5: growth control rate greater than or equal to 50% and less than 70%)	–	–	–	–
CN1C[C@H](c2cccc(Oc3ccccc3)c2)[C@@H](C(=O)Nc2cnn(C)c2Cl)C1=O [50′]	6 (Level 6: growth control rate greater than or equal to 70% and less than 80%)	–	–	–	–	–	–
CN1CC(c2cccc(OCC3CC3)c2)C(C(=O)Nc2cnn(C)c2Cl)C1=O (stereo not drawn) [Compound 39]	9	–	6 (Level 6: growth control rate greater than or equal to 70% and less than 80%)	–	–	–	–
C=Cc1cccc([C@H]2CN(C)C(=O)[C@@H]2C(=O)Nc2cnn(C)c2Cl)c1 [149′]	5 (Level 5: growth control rate greater than or equal to 50% and less than 70%)	–	5 (Level 5: growth control rate greater than or equal to 50% and less than 70%)	–	–	–	–
COc1cc(OC)cc([C@H]2CN(C)C(=O)[C@@H]2C(=O)Nc2cnn(C)c2Cl)c1 [302′]	–	6 (Level 6: growth control rate greater than or equal to 70% and less than 80%)	9	0	–	–	–
Cc1cc([C@H]2CN(C)C(=O)[C@@H]2C(=O)Nc2cnn(C)c2C#N)cc(C)c1C [518′]	–	–	–	–	0	9	9
COc1cccc([C@H]2CN(C)C(=O)[C@@H]2C(=O)Nc2cnn(C(F)F)c2Cl)c1 [215′]	–	8 (Level 8: growth control rate greater than or equal to 90% and less than 100%)	9	0	–	–	–
COCn1ncc(NC(=O)[C@H]2C(=O)N(C)C[C@@H]2c2cccc(C)c2)c1Cl [127′]	–	8 (Level 8: growth control rate greater than or equal to 90% and less than 100%)	9	0	–	–	–
C=C(C)c1c(NC(=O)[C@H]2C(=O)N(C)C[C@@H]2c2cccc(C(F)(F)F)c2)cnn1C [407′]	–	9	9	0	–	–	–
CN1C[C@H](c2cc(Br)cc(Br)c2)[C@@H](C(=O)Nc2cnn(C)c2Cl)C1=O [440′]	–	9	9	0	–	–	–
Cc1csc([C@H]2CN(C)C(=O)[C@@H]2C(=O)Nc2cnn(C)c2Cl)c1 [520′]	–	–	–	–	0	7 (Level 7: growth control rate greater than or equal to 80% and less than 90%)	9
Cc1cccc([C@H]2CN(C)C(=O)[C@@H]2C(=O)Nc2cnn(C)c2C#N)c1 [391′]	–	9	9	0	–	–	–
Cc1cccc([C@H]2CN(C)C(=O)[C@@H]2C(=O)Nc2cnn(C)c2C)c1 [134′]	–	7 (Level 7: growth control rate greater than or equal to 80% and less than 90%)	7 (Level 7: growth control rate greater than or equal to 80% and less than 90%)	0	–	–	–
C=C(C)c1c(NC(=O)[C@H]2C(=O)N(C)C[C@@H]2c2cccc(C)c2)cnn1C [379′]	–	6 (Level 6: growth control rate greater than or equal to 70% and less than 80%)	9	0	–	–	–
CN1C[C@H](c2cc(Br)cc(C(F)(F)F)c2)[C@@H](C(=O)Nc2cnn(C)c2Cl)C1=O [294′]	–	7 (Level 7: growth control rate greater than or equal to 80% and less than 90%)	9	0	–	–	–
CN1C[C@H](c2cc(Cl)cc(Cl)c2)[C@@H](C(=O)Nc2cnn(C)c2Cl)C1=O [441′]	–	9	9	0	–	–	–
CN1CC(c2cccc(C(F)(F)F)c2)C(C(=O)Nc2c(Cl)nn(C)c2Cl)C1=O (stereo not drawn) [Compound 94]	–	5 (Level 5: growth control rate greater than or equal to 50% and less than 70%)	5 (Level 5: growth control rate greater than or equal to 50% and less than 70%)	0	–	–	–
